Data reported in patent US20190076461A1, “MATERIALS AND METHODS FOR TREATING HYPOXIC CONDITIONS” (MitoGenetics, LLC, priority 2016, published 2019).

Key:
Assay type in all cases: cell-based
Settings in all cases: 24 hour incubation, vs vehicle treated cells
[1] = tested on: COX7A2 (cytochrome c oxidase subunit VIIa polypeptide 2); assay: DNA microarray of embryonic chicken liver cells incubated with selenomethionine: COX7A2 expression
Protocol: (§1) Embryonic chicken kidney and liver cells were obtained from Charles River Laboratories, Inc. Cells were cultured in 75 cc flasks. Each flask represented a treatment group as follows: Control, 1 nM selenomethionine. Treatments consisted of 24 hour incubations with selenomethionine. After that period, samples were processed for microarray analysis. Experiments were performed in triplicate. DNA microarray analyses were performed using a system provided by Agilent. Arrays included four arrays per chip (Agilent 4×44K chip). Total RNA was reverse transcribed (1000 ng) using T7 primers and labeled and transcribed using Cyanine-3 dye. Each array was hybridized with at least 1.65 μg of labeled cRNA at 65° C. for 18 hours. Arrays were scanned using an Agilent array scanner. The microarray platform can determine a minimum of a 1.5 fold change in gene expression. Fold changes between homozygous ZDF rats fed potosaccharide for 28 days vs homozygous ZDF rats fed an equivalent amount of vehicle (control) were examined. In addition, gene expression was measured in heterozygous ZDF (lean rats) fed with vehicle only and compared to gene expression in homozygous ZDF control rats. Fold changes were used to calculate a percent restoration by using the fold changes between homozygous ZDF rats fed potosaccharide and lean control rats.

[2] = tested on: COX8A (cytochrome c oxidase subunit VIIIA); assay: DNA microarray of embryonic chicken liver cells incubated with selenomethionine: COX8A expression
Protocol: as §1

[3] = tested on: MOCS2 (molybdenum cofactor synthesis 2); assay: DNA microarray of embryonic chicken liver cells incubated with selenomethionine: MOCS2 expression
Protocol: as §1

[4] = tested on: COX19 (COX19 cytochrome c oxidase assembly homolog); assay: DNA microarray of embryonic chicken liver cells incubated with selenomethionine: COX19 expression
Protocol: as §1

[5] = tested on: ATOX1 (ATX1 antioxidant protein 1 homolog); assay: DNA microarray of embryonic chicken liver cells incubated with selenomethionine: ATOX1 expression
Protocol: as §1

[6] = tested on: COX10 (COX10 homolog, cytochrome c oxidase assembly protein, heme A: farnesyltransferase); assay: DNA microarray of embryonic chicken liver cells incubated with selenomethionine: COX10 expression
Protocol: as §1

C[Se]CC[C@H](N)C(=O)O [selenomethione, L-selenomethionine]
Fold Change (1 nM Se vs Control), COX7A2 [1]: 2.2 fold
Fold Change (1 nM Se vs Control), COX8A [2]: 1.5 fold
Fold Change (1 nM Se vs Control), MOCS2 [3]: 2.2 fold
Fold Change (1 nM Se vs Control), COX19 [4]: 1.3 fold
Fold Change (1 nM Se vs Control), ATOX1 [5]: 1.4 fold
Fold Change (1 nM Se vs Control), COX10 [6]: 1.4 fold
